Measured values: patent publication US9193722B2, “Tri-cyclic pyrazolopyridine kinase inhibitors” (Vertex Pharmaceuticals Incorporated, priority 2008, dated 2015)

Key:
Format in all cases: biochemical
PKC theta kinase = PKC theta kinase (Homo sapiens, UniProt Q04759); assay: PKC theta kinase inhibition, coupled-enzyme (NADH absorbance) assay, Ki; conditions: 240 μM ATP, 18 nM PKC theta kinase, 30° C.
Summary of the method: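 Coupled-enzyme kinase assay following NADH absorbance at 340 nm, in 100 mM HEPES pH 7.5, 10 mM MgCl2, 25 mM NaCl, 0.1 mM EDTA, 0.01% Brij. Compound in DMSO preincubated with enzyme 10 min at 30 °C. Ki from initial rates by non-linear regression.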

PKC delta kinase = PKC delta kinase (Homo sapiens, UniProt Q05655); assay: PKC delta kinase inhibition, coupled-enzyme (NADH absorbance) assay, Ki; conditions: 150 μM ATP, 46 nM PKC delta kinase, 30° C.; read-out: Ki PKC delta
Sequence of PKC delta kinase (Q05655 whole entry): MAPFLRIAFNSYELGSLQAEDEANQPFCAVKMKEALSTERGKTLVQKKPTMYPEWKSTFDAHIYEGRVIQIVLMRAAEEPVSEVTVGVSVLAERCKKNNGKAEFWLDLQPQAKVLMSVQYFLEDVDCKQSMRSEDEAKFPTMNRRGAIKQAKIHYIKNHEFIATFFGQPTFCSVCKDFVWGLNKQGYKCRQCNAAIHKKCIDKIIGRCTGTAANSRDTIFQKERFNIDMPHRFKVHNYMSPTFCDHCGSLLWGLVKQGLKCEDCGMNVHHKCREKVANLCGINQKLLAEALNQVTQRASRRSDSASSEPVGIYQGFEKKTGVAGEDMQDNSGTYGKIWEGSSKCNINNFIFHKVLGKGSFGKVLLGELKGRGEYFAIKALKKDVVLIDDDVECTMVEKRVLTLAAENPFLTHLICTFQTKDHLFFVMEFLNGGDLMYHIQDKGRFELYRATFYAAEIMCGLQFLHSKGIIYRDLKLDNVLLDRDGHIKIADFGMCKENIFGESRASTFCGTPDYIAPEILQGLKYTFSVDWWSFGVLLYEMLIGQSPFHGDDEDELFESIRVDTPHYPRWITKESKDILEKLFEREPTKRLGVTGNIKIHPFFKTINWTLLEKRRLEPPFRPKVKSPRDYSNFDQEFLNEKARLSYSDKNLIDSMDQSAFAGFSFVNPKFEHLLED
Summary of the method: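 PKC delta in 100 mM HEPES pH 7.5, 10 mM MgCl2, 25 mM NaCl, 0.1 mM EDTA, 0.01% Brij, equilibrated 10 min at 30° C with compound from DMSO stock. Started with ATP at 150 μM final; NADH-coupled absorbance at 340 nm followed 15 min at 30° C. Ki from initial rates by non-linear regression.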

PKC alpha kinase = PKC alpha kinase (Homo sapiens, UniProt P17252); assay: PKC alpha kinase inhibition, coupled-enzyme (NADH absorbance) assay, Ki; conditions: 130 μM ATP, 4.5 nM PKC alpha kinase, 30° C.
Summary of the method: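 Enzyme in 100 mM HEPES pH 7.5, 10 mM MgCl2, 100 μM CaCl2, 0.01% Brij, preincubated with compound 10 min at 30 °C. Reaction started with 130 μM ATP (final); NADH consumption followed at 340 nm for 15 min at 30 °C. Ki fitted by non-linear regression of initial rates.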

Sequence of PKC theta kinase (Q04759 whole entry): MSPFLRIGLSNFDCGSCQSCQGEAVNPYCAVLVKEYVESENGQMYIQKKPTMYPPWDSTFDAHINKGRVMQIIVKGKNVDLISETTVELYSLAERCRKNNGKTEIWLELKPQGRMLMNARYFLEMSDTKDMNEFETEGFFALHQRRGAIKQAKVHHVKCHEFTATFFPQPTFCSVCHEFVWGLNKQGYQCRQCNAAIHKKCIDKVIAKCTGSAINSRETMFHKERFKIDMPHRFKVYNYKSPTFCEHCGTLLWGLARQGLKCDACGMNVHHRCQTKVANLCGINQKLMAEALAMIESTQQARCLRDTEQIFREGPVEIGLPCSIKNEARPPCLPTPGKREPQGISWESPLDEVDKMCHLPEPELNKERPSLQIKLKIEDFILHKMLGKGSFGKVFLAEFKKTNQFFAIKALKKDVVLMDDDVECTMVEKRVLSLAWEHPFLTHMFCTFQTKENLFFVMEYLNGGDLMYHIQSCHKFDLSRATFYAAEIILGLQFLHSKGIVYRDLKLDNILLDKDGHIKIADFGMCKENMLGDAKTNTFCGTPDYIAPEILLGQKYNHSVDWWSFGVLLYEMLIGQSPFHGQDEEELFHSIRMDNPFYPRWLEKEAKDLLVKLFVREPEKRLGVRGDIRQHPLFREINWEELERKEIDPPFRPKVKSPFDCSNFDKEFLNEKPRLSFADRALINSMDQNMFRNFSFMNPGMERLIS

| SMILES | Ki (PKC theta kinase) | Ki (PKC delta kinase) | Ki (PKC alpha kinase) |
| --- | --- | --- | --- |
| N#CCCC1CN(c2ccc(C(F)(F)F)c(-c3n[nH]c4ncccc34)n2)CCC1O (stereo not drawn) [Compound 459] | < 2800 nM | > 1250 nM | > 1250 nM |
| NC1CCN(c2ccc(C(F)(F)F)c(-c3n[nH]c4ncccc34)n2)CC12CCCCC2 (stereo not drawn) [Compound 461] | < 50 nM | < 500 nM | > 1250 nM |
| NC1CCN(c2ccc(C(F)(F)F)c(-c3n[nH]c4ncccc34)n2)CC12CCOCC2 (stereo not drawn) [Compound 462] | < 500 nM | < 2800 nM | > 1250 nM |
| NC1CCN(c2ccc(C(F)(F)F)c(-c3n[nH]c4ncccc34)n2)CC12CCCC2 (stereo not drawn) [Compound 464] | < 50 nM | < 500 nM | < 500 nM |
| CC(C)CC1(CN)CCN(c2ccc(C(F)(F)F)c(-c3n[nH]c4ncccc34)n2)CC1 [Compound 466] | < 500 nM | > 1250 nM | > 1250 nM |
| CC(C)CC1(CN)CCN(c2ccc(F)c(-c3n[nH]c4ncccc34)n2)CC1 [Compound 467] | < 500 nM | > 1250 nM | > 1250 nM |
| CC(C)CC1CN(c2ccc(C(F)(F)F)c(-c3n[nH]c4ncccc34)n2)CCC1CCN (stereo not drawn) [Compound 469] | < 500 nM | > 1250 nM | > 1250 nM |
